Experiments:
[1] = test system: α-SMA expression induced by TGFβ2 in cardiac fibroblasts; assay: Fibrosis inhibition evaluation 2: immunofluorescent staining of α-SMA in cardiac fibroblasts; assay type: cell-based, rats; conditions: 10 μM, TGFβ2 2 ng/ml, 48 hours, FIG. 8
Method: In the same manner as in Test Example 5, dermal fibroblasts were isolated from mice, and sterilized cover glass (diameter: 12 mm) was placed in a 12-well plate. On the cover glass, 2.5×10^5 cells were seeded and grown. After 24 hours, the medium was replaced with a medium free of fetal bovine serum, and the cells were cultured for another 24 hours. Separately, cardiac fibroblasts were isolated from 1 to 2-day-old rats and treated in the same manner as for the dermal fibroblasts. Thereafter, 10 ng/ml TGFβ1 was added to the dermal fibroblasts, and 2 ng/ml TGFβ2 was added to the cardiac fibroblasts, followed by culturing the cells for 48 hours. At the same time as TGFβ was added, 10 μM of a test compound (compound 011), 10 μM of Pyr 2 (conventional inhibitor), or DMSO (solvent control) was also added. Separately, cultured cells to which TGFβ-free phosphate buffered saline (PBS) was added were also prepared. […] After blocking with 1% bovine serum albumin, α-SMA was detected using anti-α-SMA antibody (Sigma) as the primary antibody and anti-mouse IgG antibody (Molecular Probes) fused with Alexa 488 as the secondary antibody, and an image was acquired using a fluorescence microscope (Keyence) with a 20× objective lens. The average fluorescence brightness (fluorescence intensity/pixel) per cell area was calculated and analyzed using Image J software.

dermal fibroblasts = assay: Fibrosis inhibition evaluation 1: cell morphology observation of dermal fibroblasts; assay type: cell-based, mice; conditions: dermal fibroblasts cultured 48 hours with TGFβ1
TRPC6 channel = target: T1, TRPC6 channel (Homo sapiens, UniProt Q9Y210); assay: Electrophysiological evaluation (whole-cell patch) using HEK293 cells transiently expressing TRPC6 channel; assay type: cell-based; conditions: 30 μM for 30 seconds, carbachol 100 μM, holding potential −50 mV
T1 construct: expressed in transfected cells; host or cells: HEK293
T1 sequence (Q9Y210 1-931): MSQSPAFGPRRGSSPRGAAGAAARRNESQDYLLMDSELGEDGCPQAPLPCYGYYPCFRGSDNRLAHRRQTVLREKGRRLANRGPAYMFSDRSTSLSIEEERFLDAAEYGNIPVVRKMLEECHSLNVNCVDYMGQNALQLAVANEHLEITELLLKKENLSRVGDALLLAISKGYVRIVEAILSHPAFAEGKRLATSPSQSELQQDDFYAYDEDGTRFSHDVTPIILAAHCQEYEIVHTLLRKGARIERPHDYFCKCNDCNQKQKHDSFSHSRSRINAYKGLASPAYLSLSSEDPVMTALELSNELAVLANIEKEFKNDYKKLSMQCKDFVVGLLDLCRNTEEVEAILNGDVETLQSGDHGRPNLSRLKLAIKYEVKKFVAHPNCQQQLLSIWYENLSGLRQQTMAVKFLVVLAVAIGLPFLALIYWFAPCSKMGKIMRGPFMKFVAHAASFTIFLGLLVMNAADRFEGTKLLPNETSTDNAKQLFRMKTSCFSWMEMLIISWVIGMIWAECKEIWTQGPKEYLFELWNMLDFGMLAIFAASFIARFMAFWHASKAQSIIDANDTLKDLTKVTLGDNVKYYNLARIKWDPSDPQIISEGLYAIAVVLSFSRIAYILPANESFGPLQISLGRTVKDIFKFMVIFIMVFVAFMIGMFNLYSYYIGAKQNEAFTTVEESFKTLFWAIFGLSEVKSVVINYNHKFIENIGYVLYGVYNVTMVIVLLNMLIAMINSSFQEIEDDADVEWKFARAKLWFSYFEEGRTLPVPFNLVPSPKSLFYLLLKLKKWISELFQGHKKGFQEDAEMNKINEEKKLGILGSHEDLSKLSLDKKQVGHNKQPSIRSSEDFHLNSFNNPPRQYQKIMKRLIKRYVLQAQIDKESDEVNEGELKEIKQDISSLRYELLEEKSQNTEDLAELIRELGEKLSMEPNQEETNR
Method: Evaluation was performed using TRPC6-expressing cells cultured in the same manner as in Test Example 1. The transfected cells were placed in a chamber set in a microscope, and TRPC6 current was measured with a patch glass electrode (5 to 10 MΩ) in whole-cell mode. The extracellular solution and intracellular solution used in this evaluation are listed below.
Extracellular Solution: 140 mM NaCl, 5 mM KCl, 1 mM CaCl2, 1.2 mM MgCl2, 10 mM Glucose, 10 mM HEPES (pH 7.4)
Intracellular Solution: 120 mM CsOH, 120 mM Aspartate, 20 mM CsCl, 2 mM MgCl2, 1.5 mM CaCl2, 5 mM EGTA, 10 mM Glucose, 10 mM HEPES, 2 mM ATP-Na, 0.1 mM GTP (pH 7.4)
The holding potential was fixed at −50 mV. TRPC current was evoked by adding carbachol (100 μM) to the cells. Evaluation was performed on the change in current caused by adding 30 μM of a test compound (compound 011) to the cells for 30 seconds after 20 seconds from the addition of carbachol.

[2] = test system: α-SMA expression induced by TGFβ1 in dermal fibroblasts; assay: Fibrosis inhibition evaluation 1: western blotting of α-SMA in dermal fibroblasts; assay type: cell-based, mice; conditions: compound 011 0.1, 1, 10 μM (especially 10 μM); Pyr 2 10 μM; TGFβ1 10 ng/ml, 48 hours
Method: The expression of α-smooth muscle actin (α-SMA) in fibroblasts was evaluated by western blotting. Dermal fibroblasts were isolated from 1 to 3-day-old mice, and 2.5×10^5 cells were seeded in a 12-well plate. After 24 hours, the medium was replaced with a medium free of fetal bovine serum, and the cells were cultured for another 24 hours. Thereafter, 10 ng/ml of transforming growth factor β1 (TGFβ1) was added, and the cells were cultured for 48 hours. At the same time as TGFβ1 was added, a test compound (compound 011) of a predetermined concentration (0.1 μM, 1 μM, 10 μM) and 10 μM of Pyr 2 or DMSO (solvent control) were also added. […] The cultured cells were dissolved in a lysis buffer (140 mM NaCl, 20 mM Tris-HCl pH 7.8, 1% Triton-X100, 0.05% sodium deoxycholate, 0.1% SDS, 2 mM EDTA, proteinase inhibitor cocktail), and separated by SDS-PAGE, followed by detecting α-SMA using anti-α-SMA antibody (Sigma) as the primary antibody and anti-mouse IgG antibody (cell signaling) fused with horse radish peroxidase as the secondary antibody.

## O=C(O)c1cnc(N2CCN(c3noc4cccc(C(F)(F)F)c34)CC2)c(Cl)c1 [Compound 011, 5-chloro-6-(4-(4-(trifluoromethyl)benzo[d]isoxazol-3-yl)piperazin-1-yl) nicotinic acid]
[1]
  expression of α-SMA induced by TGFβ (immunofluorescent staining): almost completely suppressed the expression of α-SMA
Dermal fibroblasts
  cell morphology / cell damage by microscopic observation: no change in cell morphology and no cell damage
TRPC6 channel
  change in TRPC6 current evoked by carbachol: significant decrease in the amount of current
[2]
  expression of α-SMA induced by TGFβ1 (western blotting): potently inhibited the expression of α-SMA induced by TGFβ1

Reference: US11976062B2, “Benzisoxazole compound” (OSAKA UNIVERSITY, priority 2018, dated 2024)
